Structures can show the parent of a compound that is named as a salt.
What follows are compounds tested on male CF1 mice (hot plate analgesia) (assay: Mouse hot plate assay (hot plate test of analgesia)). Conditions: 30 μmol/kg i.p., thirty minutes after pretreatment, 55° C. hot plate; vehicle alone 72.76±10.51 seconds.
Format: in vivo
Protocol: The compounds of the invention were tested in vivo in the hot plate test of analgesia in mammals such as mice. […] Mouse Hot Plate Assay […] At the end of the pretreatment period, the mice are placed in an Omnitech Electronics Automated 16 Animal Hot Plate Analgesia Monitor (Columbus, Ohio; Model […]) in individual, 9.8×7.2×15.3 cm (l×w×h) plastic enclosures on top of a copper plate warmed to 55° C. […] sensors located near the top of each enclosure record beam crossings that occur as the mice jump off of the heated surface. Latency times for each jump are automatically recorded, and latency to both the first and tenth jumps are used for data analysis.

Question: With `COCCN(C)c1ccc(-c2nc3ncnc(N)c3c(-c3cc(Br)cs3)c2-c2ccc(OC)c(OC)c2)cc1.Cl` [Example 19, 4-amino-5-(4-bromothiophen-2-yl)-6-(3,4-dimethoxyphenyl)-7-(4-(N-methyl-N-(2-methoxyethyl)amino)phenyl)pyrido [2,3-d]pyrimidine hydrochloride] as the compound, how does the “latency to 10th jump” value read?
Answer: 142.13 s

Question: `CN(C)c1ccc(-c2nc3ncnc(N)c3c(-c3ccccc3)c2-c2ccccc2)cc1.Cl.Cl` [Example 27, 4-amino-5,6-diphenyl-7-(4-dimethylaminophenyl)pyrido [2,3-d]pyrimidine dihydrochloride] was tested. Which “latency to 10th jump” value did it give?
Answer: 154.86 s

The compounds below were run against adenosine kinase (Homo sapiens, UniProt P55263) (assay: Inhibition of adenosine kinase in vitro). Conditions: Table 1, read-out: IC50, Inhibition of Adenosine Kinase by Representative Compounds of the Invention.
adenosine kinase, sequence (P55263 whole entry): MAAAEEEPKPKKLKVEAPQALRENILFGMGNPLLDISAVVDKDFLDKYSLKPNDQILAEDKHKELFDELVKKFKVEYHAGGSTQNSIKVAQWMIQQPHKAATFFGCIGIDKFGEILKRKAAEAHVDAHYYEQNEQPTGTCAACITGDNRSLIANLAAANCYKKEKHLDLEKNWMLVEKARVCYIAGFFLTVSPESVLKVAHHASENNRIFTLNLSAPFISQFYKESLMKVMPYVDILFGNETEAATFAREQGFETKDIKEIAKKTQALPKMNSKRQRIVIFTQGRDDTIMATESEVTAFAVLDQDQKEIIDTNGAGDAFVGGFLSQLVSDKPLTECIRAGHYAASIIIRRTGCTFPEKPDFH
Format: biochemical
Source text: The adenosine kinase to be inhibited can be located in vitro, in situ or in vivo. Where the adenosine kinase is located in vitro, adenosine kinase is contacted with the inhibitor compound, typically by adding the compound to an aqueous solution containing the enzyme, radiolabeled substrate adenosine, magnesium chloride and ATP. The enzyme can exist in intact cells or in isolated subcellular fractions containing the enzyme. The enzyme is then maintained in the presence of the inhibitor for a period of time and under suitable physiological conditions. Means for determining maintenance times are well known in the art and depend inter alia on the concentrations of enzyme and the physiological conditions. Suitable physiological conditions are those necessary to maintain adenosine kinase viability and include temperature, acidity, tonicity and the like. Inhibition of adenosine kinase can be performed, by example, according to standard procedures well known in the art (Yamada, et al., Comp. Biochem. Physiol. 1982, 71B: 367-372). […] In vitro adenosine kinase activity can be measured using any of the standard procedures well known in the art. By way of example, cells containing adenosine kinase, such as IMR-32 human neuroblastoma cells, are cultured in the presence and absence of an inhibitor. Inhibition is measured as the ability to inhibit phosphorylation of endogenous or externally applied ^14 C-adenosine by these cells. The cells can be intact or broken. The specificity of adenosine kinase inhibitory activity is determined by studying the effects of inhibitors on adenosine A1 and A2α receptor binding, adenosine deaminase activity and adenosine transport. Numerous inhibitor compounds of the present invention were tested in vitro and found to inhibit adenosine kinase activity.

Question: How did the IC50 turn out when `CCCCCc1c(-c2ccc(N(C)C)cc2)nc2ncnc(N)c2c1-c1ccc(F)c(Br)c1` [Example 1, 4-amino-5-(3-bromo-4-fluorophenyl)-6-pentyl-7-(4-(dimethylamino)phenyl)pyrido[2,3-d]pyrimidine] was run?
Answer: 80 nM

Question: With `CCc1c(-c2cccs2)nc2ncnc(N)c2c1-c1cccc(Br)c1` [Example 4, 4-amino-5-(3-bromophenyl)-6-ethyl-7-(thiophen-2-yl)pyrido[2,3-d]pyrimidine] as the compound, how does the IC50 read?
Answer: 3 nM

Question: With `COc1ccc(-c2c(-c3cccs3)nc3ncnc(N)c3c2-c2cccc(Br)c2)cc1OC` [Example 6, 4-amino-5-(3-bromophenyl)-6-(3,4-dimethoxyphenyl)-7-(thiophen-2-yl)pyrido[2,3-d]pyrimidine] as the compound, how does the IC50 read?
Answer: 1 nM

Question: `CCOC(=O)Cc1c(-c2cccs2)nc2ncnc(N)c2c1-c1cccc(Br)c1` [Example 8, 4-amino-5-(3-bromophenyl)-6-ethoxycarbonylmethyl-7-(thiophen-2-yl)pyrido[2,3-d]pyrimidine hydrochloride] was tested. Which IC50 did it give?
Answer: 3 nM

Question: With `COc1cccc(Cc2c(-c3cccs3)nc3ncnc(N)c3c2-c2cccc(Br)c2)c1` [Example 9, 4-amino-5-(3-bromophenyl)-6-(3-methoxyphenylmethyl)-7-(thiophen-2-yl)pyrido[2,3-d]pyrimidine hydrochloride] as the compound, how does the IC50 read?
Answer: 23 nM

Question: With `COc1ccc(-c2c(-c3cccs3)nc3ncnc(N)c3c2-c2cc(Br)cs2)cc1OC` [Example 11, 4-amino-5-(4-bromothiophen-2-y)-6-(3,4-dimethoxyphenyl)-7-(thiophen-2-yl)pyrido[2,3-d]pyrimidine hydrochloride] as the compound, how does the IC50 read?
Answer: 0.3 nM

Question: `COc1ccc(-c2c(-c3cccs3)nc3ncnc(N)c3c2-c2cccc(Cl)c2)cc1OC` [Example 12, 4-amino-5-(3-chlorophenyl)-6-(3,4-dimethoxyphenyl)-7-(thiophen-2-yl)pyrido[2,3-d]pyrimidine hydrochloride] was tested. Which IC50 did it give?
Answer: 1 nM

Question: How did the IC50 turn out when `COCCN(C)c1ccc(-c2nc3ncnc(N)c3c(-c3cc(Br)cs3)c2-c2ccc(OC)c(OC)c2)cc1.Cl` [Example 19, 4-amino-5-(4-bromothiophen-2-yl)-6-(3,4-dimethoxyphenyl)-7-(4-(N-methyl-N-(2-methoxyethyl)amino)phenyl)pyrido [2,3-d]pyrimidine hydrochloride] was run?
Answer: 0.1 nM

Question: How did the IC50 turn out when `CC(C)c1ccc(-c2c(-c3ccc(N(C)C)cc3)nc3ncnc(N)c3c2-c2ccc(C(C)C)cc2)cc1` [Example 25, 4-amino-5,6-(bis-4-(2-propyl)phenyl)-7-(4-dimethylaminophenyl)pyrido[2.3-d]pyrimidine] was run?
Answer: 4 nM

Question: Which IC50 does the source give for `COCCN(C)c1ccc(-c2nc3ncnc(N)c3c(-c3ccccc3)c2-c2ccccc2)cc1` [Example 26, 4-amino-5-phenyl-6-phenyl-7-(4-(N-methyl-N-(2-methoxyethyl)amino)phenyl)pyrido[2,3-d]pyrimidine hydrochloride] here?
Answer: 5 nM

Question: For `CN(C)c1ccc(-c2nc3ncnc(N)c3c(-c3ccccc3)c2-c2ccccc2)cc1.Cl.Cl` [Example 27, 4-amino-5,6-diphenyl-7-(4-dimethylaminophenyl)pyrido [2,3-d]pyrimidine dihydrochloride], which IC50 is on record?
Answer: 9 nM

Question: How did the IC50 turn out when `Nc1ncnc2nc(-c3ccc(N4CCOCC4)nc3)c(-c3ccc(F)cc3)c(-c3cccc(Br)c3)c12` [Example 39, 4-amino-5-(3-bromophenyl)-6-(4-fluorophenyl)-7-(6-morpholinyl-3-pyridinyl)pyrido[2,3-d]pyrimidine hydrochloride] was run?
Answer: 5 nM

Question: How did the IC50 turn out when `Nc1ncnc2nc(-c3ccc(N4CCOCC4)nc3)c(-c3ccccc3)c(-c3ccccc3)c12` [Example 40, 4-amino-5-phenyl-6-phenyl-7-(6-morpholinyl-3-pyridinyl)pyrido [2,3-d]pyrimidine hydrochloride] was run?
Answer: 3 nM

Question: With `Nc1ncnc2nc(-c3ccc(N4CCOCC4)nc3)c(-c3ccccc3)c(-c3cccc(Br)c3)c12` [Example 41, 4-amino-5-(3-bromophenyl)-6-phenyl-7-(6-morpholinyl-3-pyridinyl)pyrido [2,3-d]pyrimidine hydrochloride] as the compound, how does the IC50 read?
Answer: 2 nM
